Drawing on ChEMBL document CHEMBL4351030, “Synthesis and biological evaluation of 3-carbamate smilagenin derivatives as potential neuroprotective agents” (2019), this text covers Activity, viability and inhibition for 16 molecules.

Calls of active or inactive are those of the source. The calls are words filed in the database; no cut-off is given here.

Test [1] deals with SH-SY5Y. In words: Neuroprotective activity against H2O2-induced oxidative stress in human SH-SY5Y cells assessed as cell viability at 10 uM preincubated for 2 hrs followed by H2O2 stimulation for 30 mins followed by further incubation for 24 hrs by MTT assay relative to control. The note with it: for viability at 10 µM: read-out: Activity. It is filed as functional. A general note: Tetrazolium assays rely on reduction of a dye to a coloured formazan, in cell work by metabolically active cells.

In test [2] the test system is SH-SY5Y. In words: Neuroprotective activity against H2O2-induced oxidative stress in human SH-SY5Y cells assessed as cell viability at 1 mM preincubated for 2 hrs followed by H2O2 stimulation for 30 mins followed by further incubation for 24 hrs by MTT assay relative to control. It is filed as functional. To be noted: read-out: Activity.
The subject of a further test is RAW264.7. Description: Neuroprotective activity against LPS-induced oxidative stress in mouse RAW264.7 cells assessed as reduction in NO production at 10 uM preincubated for 30 mins followed by LPS stimulation for 20 hrs by Griess reagent based microplate reader assay relative to control. The class given is functional. On the technique in general: The Griess reaction detects nitrite, a stable product of nitric oxide.

Test [3] concerns SH-SY5Y. Description: Neuroprotective activity against oxygen-glucose deprivation-induced cell damage in human SH-SY5Y cells assessed as increase in cell viability measured after 5.5 hrs of post OGD challenge by MTT assay. It is filed as functional, cell-based.

Take `C[C@@H]1CC[C@@]2(OC1)O[C@H]1C[C@H]3[C@@H]4CC[C@@H]5C[C@@H](OC(=O)N6CCN(C)CC6)CC[C@]5(C)[C@H]4CC[C@]3(C)[C@H]1[C@@H]2C`: in the test on SH-SY5Y [1], the outcome was inactive. For the molecule `CC(=O)N[C@@H](CS)C(=O)O` [ACETYLCYSTEINE], the viability at 1000 µM in the test with SH-SY5Y [2] was 37.1%.

In the case of `Cc1ccc(CNC(=O)O[C@H]2CC[C@@]3(C)[C@H](CC[C@@H]4[C@@H]3CC[C@]3(C)[C@@H]5[C@H](C[C@@H]43)O[C@]3(CC[C@@H](C)CO3)[C@H]5C)C2)cc1`, the inhibition at 10 µM in the test with RAW264.7 is 6.8%. In addition, in the test with SH-SY5Y [1], the viability at 10 µM worked out at 29.2%. For `C[C@@H]1CC[C@@]2(OC1)O[C@H]1C[C@H]3[C@@H]4CC[C@@H]5C[C@@H](OC(=O)N6CCN(Cc7ccccc7)CC6)CC[C@]5(C)[C@H]4CC[C@]3(C)[C@H]1[C@@H]2C`, the inhibition at 10 µM in the test with RAW264.7 was 18.3%. Moreover, in the test with SH-SY5Y [1], the viability at 10 µM turned out to be 36.9%. The outcome in the test on SH-SY5Y [3] was Active. On to `C[C@@H]1CC[C@@]2(OC1)O[C@H]1C[C@H]3[C@@H]4CC[C@@H]5C[C@@H](OC(=O)NCc6ccccc6)CC[C@]5(C)[C@H]4CC[C@]3(C)[C@H]1[C@@H]2C`, for which the viability at 10 µM with SH-SY5Y [1] amounted to 5.8%. The same measure, in the same setting: the result for `C[C@@H]1CC[C@@]2(OC1)O[C@H]1C[C@H]3[C@@H]4CC[C@@H]5C[C@@H](O)CC[C@]5(C)[C@H]4CC[C@]3(C)[C@H]1[C@@H]2C` reads 3.5%; that for `COc1ccc(CN2CCN(C(=O)O[C@H]3CC[C@@]4(C)[C@H](CC[C@@H]5[C@@H]4CC[C@]4(C)[C@@H]6[C@H](C[C@@H]54)O[C@]4(CC[C@@H](C)CO4)[C@H]6C)C3)CC2)cc1`, 4.8%. Take `COc1ccc(CNC(=O)O[C@H]2CC[C@@]3(C)[C@H](CC[C@@H]4[C@@H]3CC[C@]3(C)[C@@H]5[C@H](C[C@@H]43)O[C@]3(CC[C@@H](C)CO3)[C@H]5C)C2)cc1`: in the test with RAW264.7, the inhibition at 10 µM worked out at 9.2%. Besides, the viability at 10 µM in the test with SH-SY5Y [1] is 17.9%. Consider `C[C@@H]1CC[C@@]2(OC1)O[C@H]1C[C@H]3[C@@H]4CC[C@@H]5C[C@@H](OC(=O)N6CCN(Cc7ccc(C#N)cc7)CC6)CC[C@]5(C)[C@H]4CC[C@]3(C)[C@H]1[C@@H]2C`, for which the inhibition at 10 µM in the test with RAW264.7 was 23.5%. Moreover, in the test on SH-SY5Y [1], the viability at 10 µM worked out at 40.5%. In addition, the result in the test with SH-SY5Y [3] was Active. The corresponding values for `C[C@@H]1CC[C@@]2(OC1)O[C@H]1C[C@H]3[C@@H]4CC[C@@H]5C[C@@H](OC(=O)NCc6ccc(Cl)cc6)CC[C@]5(C)[C@H]4CC[C@]3(C)[C@H]1[C@@H]2C` are 17.6%, 45.5% and “Active”. Consider `C[C@@H]1CC[C@@]2(OC1)O[C@H]1C[C@H]3[C@@H]4CC[C@@H]5C[C@@H](OC(=O)N6CCN(CCO)CC6)CC[C@]5(C)[C@H]4CC[C@]3(C)[C@H]1[C@@H]2C`, for which the outcome with SH-SY5Y [1] was inactive. As to `C[C@@H]1CC[C@@]2(OC1)O[C@H]1C[C@H]3[C@@H]4CC[C@@H]5C[C@@H](OC(=O)N6CCN(Cc7ccc(Cl)cc7)CC6)CC[C@]5(C)[C@H]4CC[C@]3(C)[C@H]1[C@@H]2C`, in the test with RAW264.7, the inhibition at 10 µM came to 15.2%. The viability at 10 µM in the test with SH-SY5Y [1] stood at 34.8%. Further, in the test with SH-SY5Y [3], the result was Active. `CC(C)CNC(=O)O[C@H]1CC[C@@]2(C)[C@H](CC[C@@H]3[C@@H]2CC[C@]2(C)[C@@H]4[C@H](C[C@@H]32)O[C@]2(CC[C@@H](C)CO2)[C@H]4C)C1`: the viability at 10 µM in the test with SH-SY5Y [1] was found to be 9.2%. Same read-out and setting: under `C[C@@H]1CC[C@@]2(OC1)O[C@H]1C[C@H]3[C@@H]4CC[C@@H]5C[C@@H](OC(=O)N(C)C)CC[C@]5(C)[C@H]4CC[C@]3(C)[C@H]1[C@@H]2C` stands 6.3%. `C[C@@H]1CC[C@@]2(OC1)O[C@H]1C[C@H]3[C@@H]4CC[C@@H]5C[C@@H](OC(=O)N6CCN(Cc7ccccc7O)CC6)CC[C@]5(C)[C@H]4CC[C@]3(C)[C@H]1[C@@H]2C`: the inhibition at 10 µM with RAW264.7 is 7.02%. The viability at 10 µM with SH-SY5Y [1] came to 38.4%. `COc1cc(CN2CCN(C(=O)O[C@H]3CC[C@@]4(C)[C@H](CC[C@@H]5[C@@H]4CC[C@]4(C)[C@@H]6[C@H](C[C@@H]54)O[C@]4(CC[C@@H](C)CO4)[C@H]6C)C3)CC2)ccc1O`: the viability at 10 µM in the test on SH-SY5Y [1] was 10.3%.

What is called inhibition is how much of the control response was suppressed.
